One compound from patent publication US20220175744A1, “COMBINATIONS OF TRANSCRIPTION INHIBITORS AND IMMUNE CHECKPOINT INHIBITORS FOR TREATMENT OF DISEASE” (Board of Regents, The University of Texas System, priority 2019, published 2022) can be followed below.

Common to all, as to format: cell-based
Assay [1] has as its target T1, p-STAT3 (Homo sapiens, UniProt P40763).
T1 construct: endogenous in cells
Kind of assay: inhibition of p-STAT3 by western blot and immunofluorescence in PDAC cell lines. As to conditions: all tested PDAC cell lines; western blot, immunofluorescence. How it is done: The chemical synthesis of WP1066 and WP1732 and their characterization was performed at U.T. MD Anderson Cancer Center. In vitro efficacy of both inhibitors was assessed using proliferation and apoptosis induction assays in a panel of patient-derived and commercially-available PDAC cell lines. Inhibition of p-STAT3 was investigated using western blot (WB) and immunofluorescence. […] Observed IC50 values ranged from 0.5 to 2 μM.
(A western blot detects proteins with antibodies after separation by electrophoresis.)

In assay [2] the test system is patient-derived and commercially-available PDAC cell lines. Kind of assay: apoptosis induction assay in PDAC cell lines. As to conditions: all tested PDAC cell lines.
For assay [3] the test system is unchanged. Kind of assay: proliferation assay in a panel of PDAC cell lines. As to conditions: range over all tested PDAC cell lines.

T1 sequence (P40763 whole entry): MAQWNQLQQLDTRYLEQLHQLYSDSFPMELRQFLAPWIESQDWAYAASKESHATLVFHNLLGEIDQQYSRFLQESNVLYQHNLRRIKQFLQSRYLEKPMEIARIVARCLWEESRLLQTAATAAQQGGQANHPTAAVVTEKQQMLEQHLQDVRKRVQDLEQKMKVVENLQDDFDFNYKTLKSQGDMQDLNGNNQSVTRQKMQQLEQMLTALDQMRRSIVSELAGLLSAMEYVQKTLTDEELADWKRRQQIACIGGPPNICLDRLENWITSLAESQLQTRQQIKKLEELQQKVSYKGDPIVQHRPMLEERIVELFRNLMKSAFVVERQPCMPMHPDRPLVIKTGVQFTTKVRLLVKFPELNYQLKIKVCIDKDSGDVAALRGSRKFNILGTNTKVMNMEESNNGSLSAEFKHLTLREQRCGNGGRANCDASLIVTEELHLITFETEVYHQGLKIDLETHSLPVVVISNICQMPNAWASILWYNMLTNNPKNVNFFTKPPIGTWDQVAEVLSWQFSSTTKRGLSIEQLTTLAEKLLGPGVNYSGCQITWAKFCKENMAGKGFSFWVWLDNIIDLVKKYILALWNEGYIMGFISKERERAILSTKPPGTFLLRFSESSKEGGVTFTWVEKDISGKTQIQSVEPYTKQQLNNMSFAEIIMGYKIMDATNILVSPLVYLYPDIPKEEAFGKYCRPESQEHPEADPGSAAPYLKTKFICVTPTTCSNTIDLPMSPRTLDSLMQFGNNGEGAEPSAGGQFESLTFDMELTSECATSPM

As to `C[C@H](NC(=O)/C(C#N)=C/c1cccc(Br)n1)c1ccccc1` [WP1066], the “inhibition of p-STAT3 and its nuclear localization” value in assay [1] is “inhibit p-STAT3 and its nuclear localization”. Moreover, the apoptosis induction entry in assay [2] is recorded as “induce apoptosis”. Also, the IC50 (usually the concentration that inhibits the measured activity by half) in assay [3] is 0.5 to 2 µM.
